Source: patent US8975260B2, “Pyridazinones, method of making, and method of use thereof” (Genetech, Inc, priority 2010, dated 2015)

Experiments:
[1] = system: CD69 by B lymphocytes in human whole blood; test: CD69 Whole Blood Assay; format: cell-based; settings: Lymphocyte; human whole blood activated with goat F(ab')2 anti-human IgM, 20 hours; CD69 positive cells that are also CD20 positive
Description: A CD69 Whole Blood Assay can be conducted on Formula I compounds to determine the ability of compounds to inhibit the production of CD69 by B lymphocytes in human whole blood activated by crosslinking surface IgM with goat F(ab′)2 anti-human IgM (Example 907).
Human blood is obtained from healthy volunteers, with the following restrictions: 1 week drug-free, non-smokers. Blood (approximately 20 mls to test 8 compounds) is collected by venipuncture into Vacutainer® (Becton, Dickinson and Co.) tubes with sodium heparin.
Solutions of Formula I compounds at 10 mM in DMSO are diluted 1:10 in 100% DMSO, then are diluted by three-fold serial dilutions in 100% DMSO for a ten point dose-response curve. The compounds are further diluted 1:10 in PBS and then an aliquot of 5.5 μl of each compound is added in duplicate to a 2 ml 96-well plate; 5.5 μl of 10% DMSO in PBS is added as control and no-stimulus wells. Human whole blood—HWB (100 μl) is added to each well. After mixing the plates are incubated at 37° C., 5% CO2, 100% humidity for 30 minutes. […] Data acquired and Mean Fluorescence Intensity values were obtained using BD Biosciences DIVA Software. Results are initially analyzed by FACS analysis software (Flow Jo). […] The IC50 values are calculated by Prism version 5, using a nonlinear regression curve fit.

[2] = target: full length human wildtype Btk (Homo sapiens (Human), UniProt Q06187); test: Biochemical Btk Kinase Assay
Experimental: Formula I compounds were tested by a standard biochemical Btk Kinase Assay (Example 901). A generalized procedure for a standard biochemical Btk Kinase Assay that can be used to test Formula I compounds is as follows. […] Btk enzyme is prepared as follows: full length human wildtype Btk (accession number NM-000061) with a C-terminal V5 and 6× His tag was subcloned into pFastBac vector for making baculovirus carrying this epitope-tagged Btk. Generation of baculovirus is done based on Invitrogen's instructions detailed in its published protocol “Bac-to-Bac Baculovirus Expression Systems” (Cat. Nos. 10359-016 and 10608-016). […] A quantity of 1.25 μL of compounds in 5% DMSO is transferred to a 96-well ½ area Costar polystyrene plate. […] A quantity of 18.75 μL of master mix minus enzyme (as a negative control) and master mix plus enzyme is transferred to appropriate wells in 96-well ½ area costar polystyrene plate. […] The plate is read using time-resolved fluorescence with a Perkin Elmer Envision using excitation filter 330 nm, emission filter 665 nm, and 2nd emission filter 615 nm. IC50 values are subsequently calculated. Alternatively, the Lanthascreen assay can be used to evaluate Btk activity through quantification of its phosphorylated peptide product. […] Detection is determined on a Perkin Elmer Envision with 340 nm excitation and emission at 495 nm and 520 nm. […]

Sequence of full length human wildtype Btk (Q06187 whole entry): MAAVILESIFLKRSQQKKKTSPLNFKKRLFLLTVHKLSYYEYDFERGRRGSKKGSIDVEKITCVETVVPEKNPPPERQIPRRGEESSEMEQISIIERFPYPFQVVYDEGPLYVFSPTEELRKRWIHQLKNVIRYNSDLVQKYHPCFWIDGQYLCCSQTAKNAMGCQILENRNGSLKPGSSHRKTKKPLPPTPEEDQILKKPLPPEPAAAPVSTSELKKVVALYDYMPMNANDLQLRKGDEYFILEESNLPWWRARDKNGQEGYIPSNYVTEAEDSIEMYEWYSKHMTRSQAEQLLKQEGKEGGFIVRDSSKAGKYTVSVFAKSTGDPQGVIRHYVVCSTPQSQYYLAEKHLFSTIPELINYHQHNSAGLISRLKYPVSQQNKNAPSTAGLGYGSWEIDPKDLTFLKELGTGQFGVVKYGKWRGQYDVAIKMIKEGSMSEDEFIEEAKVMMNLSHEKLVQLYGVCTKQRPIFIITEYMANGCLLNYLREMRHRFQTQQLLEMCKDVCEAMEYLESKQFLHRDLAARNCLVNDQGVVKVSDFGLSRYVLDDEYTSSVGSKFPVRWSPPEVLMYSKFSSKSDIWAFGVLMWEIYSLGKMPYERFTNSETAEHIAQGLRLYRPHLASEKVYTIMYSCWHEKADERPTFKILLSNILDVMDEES

| Compound | melting point [°C] | IC50 [1] [nM] | IC50 [2] [nM] |
| --- | --- | --- | --- |
| CCn1ccc(Nc2cc(-c3cccc(N4Cc5cc(C(C)(C)C)ccc5C4=O)c3CO)nn(C)c2=O)n1 [Compound 102, 5-tert-Butyl-2-(3-(5-(1-ethyl-1H-pyrazol-3-ylamino)-1-methyl-6-oxo-1,6-dihydropyridazin-3-yl)-2-(hydroxymethyl)phenyl)isoindolin-1-one] | 174 to 176 |  |  |
| Cn1nc(-c2cccc(N3Cc4cc(C(C)(C)C)ccc4C3=O)c2CO)cc(Nc2ccncn2)c1=O [Compound 103, 5-tert-Butyl-2-(2-(hydroxymethyl)-3-(1-methyl-6-oxo-5-(pyrimidin-4-ylamino)-1,6-dihydropyridazin-3-yl)phenyl)isoindolin-1-one] | 236 to 238 |  |  |
| Cn1nc(-c2cccc(N3Cc4cc(C(C)(C)C)ccc4C3=O)c2CO)cc(Nc2ccccn2)c1=O [Compound 104, 5-tert-Butyl-2-(2-(hydroxymethyl)-3-(1-methyl-6-oxo-5-(pyridin-2-ylamino)-1,6-dihydropyridazin-3-yl)phenyl)isoindolin-1-one] | 236 to 237 |  |  |
| Cn1nc(-c2cccc(N3Cc4cc(C(C)(C)C)ccc4C3=O)c2CO)cc(Nc2ccn(C3CNC3)n2)c1=O [Compound 105, 2-(3-(5-(1-(Azetidin-3-yl)-1H-pyrazol-3-ylamino)-1-methyl-6-oxo-1,6-dihydropyridazin-3-yl)-2-(hydroxymethyl)phenyl)-5-tert-butylisoindolin-1-one] | 202 to 204 |  |  |
| CCN(C)c1ccc2c(c1)CN(c1cccc(-c3cc(Nc4cc5n(n4)CCN(C)C5)c(=O)n(C)n3)c1CO)C2=O [Compound 106, 5-(Ethyl(methyl)amino)-2-(2-(hydroxymethyl)-3-(1-methyl-5-(5-methyl-4,5,6,7-tetrahydropyrazolo[1,5-a]pyrazin-2-ylamino)-6-oxo-1,6-dihydropyridazin-3-yl)phenyl)isoindolin-1-one] | 145 to 147 |  |  |
| Cc1c(-c2cc(Nc3cc4n(n3)CCN(C)C4)c(=O)[nH]n2)cccc1N1Cc2ccc(C(C)(C)C)cc2C1=O [Compound 107, 6-tert-Butyl-2-(2-methyl-3-(5-(5-methyl-4,5,6,7-tetrahydropyrazolo[1,5-a]pyrazin-2-ylamino)-6-oxo-1,6-dihydropyridazin-3-yl)phenyl)isoindolin-1-one] | 208 to 210 | 461 | 14 |
| Cc1c(-c2cc(Nc3cc4n(n3)CCN(C)C4)c(=O)n(COP(=O)([O-])[O-])n2)cccc1N1Cc2cc(C(C)(C)C)sc2C1=O.[Na+].[Na+] [Compound 108, Sodium (3-(3-(2-tert-Butyl-6-oxo-4H-thieno[2,3-c]pyrrol-5(6H)-yl)-2-methylphenyl)-5-(5-methyl-4,5,6,7-tetrahydropyrazolo[1,5-a]pyrazin-2-ylamino)-6-oxopyridazin-1(6H)-yl)methyl Phosphate] | 240 to 242 |  |  |
| CN1CCn2nc(Nc3cc(-c4cccc(N5Cc6cc(C(C)(C)C)ccc6C5=O)c4CO)nn(C)c3=O)cc2C1 [Compound 145, 5-tert-butyl-2-[2-(hydroxymethyl)-3-[1-methyl-5-({5-methyl-4H,5H,6H,7H-pyrazolo[1,5-a]pyrazin-2-yl}amino)-6-oxo-1,6-dihydropyridazin-3-yl]phenyl]-2,3-dihydro-1H-isoindol-1-one] |  | 91 |  |
